From ChEMBL document CHEMBL5465560, “Selectivity Literature for EUbOPEN Chemogenomic Library” (2024) come the findings set out here.

In test [1] the target is Ribosomal protein S6 kinase alpha-4 (Homo sapiens) (UniProt O75676). Nature of the test: Selectivity interaction (Kinase panel (Z-LYTE Assay)) EUB0001632a RPS6KA4. Conditions: at 10 µM.
Test [2] concerns the target Serine/threonine-protein kinase tousled-like 2 (Homo sapiens) (UniProt Q86UE8). Kind of test: Selectivity interaction (LanthaScreen Eu Kinase Binding Assay) EUB0001632a TLK2. The settings on record: at 10 µM. For orientation: In TR-FRET formats the signal depends on donor and acceptor labels being close together.
The target of test [3] is T1, Serine/threonine-protein kinase 17A (Homo sapiens) (UniProt Q9UEE5).
T1 sequence (whole entry): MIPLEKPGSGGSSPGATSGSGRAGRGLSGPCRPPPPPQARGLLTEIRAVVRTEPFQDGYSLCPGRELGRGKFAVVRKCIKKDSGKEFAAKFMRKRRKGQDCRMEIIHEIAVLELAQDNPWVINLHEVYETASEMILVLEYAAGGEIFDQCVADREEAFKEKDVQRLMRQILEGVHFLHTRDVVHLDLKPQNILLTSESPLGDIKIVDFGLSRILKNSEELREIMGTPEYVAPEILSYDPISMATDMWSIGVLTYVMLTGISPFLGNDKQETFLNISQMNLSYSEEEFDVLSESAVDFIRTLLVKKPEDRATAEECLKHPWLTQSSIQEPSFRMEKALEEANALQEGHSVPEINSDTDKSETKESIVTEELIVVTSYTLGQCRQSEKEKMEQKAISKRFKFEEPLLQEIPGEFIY
Kind of test: Selectivity interaction (KinomeScan (DiscoverX)) EUB0000607a STK17A. Conditions: at 10 µM.

The target in test [4] is Protein kinase C eta type (Homo sapiens) (UniProt P24723). Kind of test: Selectivity interaction (KinomeScan (DiscoverX)) EUB0000607a PRKCH. Conditions: at 10 µM.
The test system of test [5] is Tyrosine-protein kinase ABL1 (Homo sapiens), P00519 [H396P]. Nature of the test: Selectivity interaction (KinomeScan (DiscoverX)) EUB0000666a ABL1. The settings on record: at 10 µM.
Test [6] concerns the target T2, Mitogen-activated protein kinase kinase kinase 3 (Homo sapiens) (UniProt Q99759).
T2 sequence (whole entry): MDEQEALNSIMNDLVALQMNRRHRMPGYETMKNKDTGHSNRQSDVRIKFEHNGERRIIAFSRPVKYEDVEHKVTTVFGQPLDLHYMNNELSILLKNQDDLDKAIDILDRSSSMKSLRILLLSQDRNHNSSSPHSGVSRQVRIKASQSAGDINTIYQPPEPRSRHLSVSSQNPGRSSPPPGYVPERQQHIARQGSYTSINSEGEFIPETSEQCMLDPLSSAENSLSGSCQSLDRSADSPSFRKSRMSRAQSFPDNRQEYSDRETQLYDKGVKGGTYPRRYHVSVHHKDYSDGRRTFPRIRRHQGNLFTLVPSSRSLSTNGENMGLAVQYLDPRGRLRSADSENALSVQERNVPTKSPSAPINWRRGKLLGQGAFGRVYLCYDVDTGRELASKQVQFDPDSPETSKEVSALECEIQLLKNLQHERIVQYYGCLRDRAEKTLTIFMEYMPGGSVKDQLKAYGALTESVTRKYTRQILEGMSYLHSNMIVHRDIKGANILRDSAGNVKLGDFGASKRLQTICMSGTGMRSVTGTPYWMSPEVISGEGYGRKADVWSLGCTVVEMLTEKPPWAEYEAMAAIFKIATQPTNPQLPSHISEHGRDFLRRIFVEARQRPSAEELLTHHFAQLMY
Kind of test: Selectivity interaction (KinomeScan (DiscoverX)) EUB0000229b MAP3K3. The settings on record: at 10 µM.

Test [7] addresses 5'-AMP-activated protein kinase catalytic subunit alpha-1 (Homo sapiens, UniProt Q13131). Kind of test: Selectivity interaction (KinomeScan (DiscoverX)) EUB0000655a PRKAA1. The settings on record: at 10 µM.
Test [8] addresses Mitogen-activated protein kinase 8 (Homo sapiens, UniProt P45983). Nature of the test: Selectivity interaction (Kinase panel (literature)) EUB0001199aCl MAPK8. Conditions: at 1 µM.
In test [9] the target is Protein kinase C beta type (Homo sapiens, UniProt P05771). Kind of test: Selectivity interaction (Kinase panel (literature)) EUB0001199aCl PRKCB. Conditions: at 1 µM.
Test [10] concerns the target Ribosomal protein S6 kinase alpha-2 (Homo sapiens) (UniProt Q15349). Kind of test: Selectivity interaction (ActivX KiNativ screen (kinase selectivity in THP-1 cell lysates)) EUB0000639a RPS6KA2. Type of test: subcellular. The settings on record: lysate, at 5 µM.
The target in test [11] is Homeodomain-interacting protein kinase 2 (Homo sapiens, UniProt Q9H2X6). Kind of test: Selectivity interaction (Enzymatic assay (Eurofins)) EUB0001049a HIPK2.
Test [12] has as its target Calcium/calmodulin-dependent protein kinase type 1D (Homo sapiens) (UniProt Q8IU85). Kind of test: Selectivity interaction (KinomeScan (DiscoverX)) EUB0000595a CAMK1D. The settings on record: at 10 µM.

Chain of Ribosomal protein S6 kinase alpha-4 (Homo sapiens) (O75676 whole entry, looked up): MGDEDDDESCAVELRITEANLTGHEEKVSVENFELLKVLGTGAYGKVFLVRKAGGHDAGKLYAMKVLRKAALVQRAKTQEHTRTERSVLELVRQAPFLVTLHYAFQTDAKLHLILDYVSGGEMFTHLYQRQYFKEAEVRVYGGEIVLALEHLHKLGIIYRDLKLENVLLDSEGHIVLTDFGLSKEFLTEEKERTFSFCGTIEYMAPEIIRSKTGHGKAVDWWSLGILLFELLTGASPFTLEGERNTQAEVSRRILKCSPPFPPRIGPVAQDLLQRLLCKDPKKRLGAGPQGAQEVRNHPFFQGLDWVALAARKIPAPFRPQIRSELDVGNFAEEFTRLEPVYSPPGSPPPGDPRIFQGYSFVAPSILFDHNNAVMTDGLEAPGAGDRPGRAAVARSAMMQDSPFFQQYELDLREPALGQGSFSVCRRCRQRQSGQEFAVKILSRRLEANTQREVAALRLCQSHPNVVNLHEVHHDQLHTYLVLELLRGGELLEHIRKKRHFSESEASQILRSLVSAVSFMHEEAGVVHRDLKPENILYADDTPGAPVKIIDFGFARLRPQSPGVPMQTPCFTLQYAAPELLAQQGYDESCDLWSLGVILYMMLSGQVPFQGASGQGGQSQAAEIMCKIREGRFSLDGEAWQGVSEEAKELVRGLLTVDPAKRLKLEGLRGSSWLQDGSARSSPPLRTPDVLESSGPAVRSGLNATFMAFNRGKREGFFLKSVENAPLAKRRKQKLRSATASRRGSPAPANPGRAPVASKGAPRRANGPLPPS
Chain of Ribosomal protein S6 kinase alpha-2 (Homo sapiens) (Q15349 whole entry): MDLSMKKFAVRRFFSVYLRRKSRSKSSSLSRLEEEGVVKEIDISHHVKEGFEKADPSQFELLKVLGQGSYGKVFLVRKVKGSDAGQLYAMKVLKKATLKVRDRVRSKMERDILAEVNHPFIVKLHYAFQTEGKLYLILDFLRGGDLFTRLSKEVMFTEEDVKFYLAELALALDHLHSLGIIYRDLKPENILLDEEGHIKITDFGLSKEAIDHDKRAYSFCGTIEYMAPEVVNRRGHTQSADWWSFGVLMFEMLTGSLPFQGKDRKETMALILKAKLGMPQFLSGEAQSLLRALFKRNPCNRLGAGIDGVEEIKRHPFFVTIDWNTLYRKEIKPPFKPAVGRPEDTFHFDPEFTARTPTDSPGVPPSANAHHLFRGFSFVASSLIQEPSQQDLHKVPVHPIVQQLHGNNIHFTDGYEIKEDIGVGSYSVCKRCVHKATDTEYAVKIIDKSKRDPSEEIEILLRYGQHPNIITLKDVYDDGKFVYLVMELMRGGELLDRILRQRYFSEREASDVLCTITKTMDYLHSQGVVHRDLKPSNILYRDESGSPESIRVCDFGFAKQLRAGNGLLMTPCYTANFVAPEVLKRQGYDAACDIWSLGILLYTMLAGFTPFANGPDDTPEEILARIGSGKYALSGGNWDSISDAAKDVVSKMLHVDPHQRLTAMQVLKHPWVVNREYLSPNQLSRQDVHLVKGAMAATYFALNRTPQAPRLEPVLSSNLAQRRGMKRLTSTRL
Chain of Homeodomain-interacting protein kinase 2 (Q9H2X6 whole entry): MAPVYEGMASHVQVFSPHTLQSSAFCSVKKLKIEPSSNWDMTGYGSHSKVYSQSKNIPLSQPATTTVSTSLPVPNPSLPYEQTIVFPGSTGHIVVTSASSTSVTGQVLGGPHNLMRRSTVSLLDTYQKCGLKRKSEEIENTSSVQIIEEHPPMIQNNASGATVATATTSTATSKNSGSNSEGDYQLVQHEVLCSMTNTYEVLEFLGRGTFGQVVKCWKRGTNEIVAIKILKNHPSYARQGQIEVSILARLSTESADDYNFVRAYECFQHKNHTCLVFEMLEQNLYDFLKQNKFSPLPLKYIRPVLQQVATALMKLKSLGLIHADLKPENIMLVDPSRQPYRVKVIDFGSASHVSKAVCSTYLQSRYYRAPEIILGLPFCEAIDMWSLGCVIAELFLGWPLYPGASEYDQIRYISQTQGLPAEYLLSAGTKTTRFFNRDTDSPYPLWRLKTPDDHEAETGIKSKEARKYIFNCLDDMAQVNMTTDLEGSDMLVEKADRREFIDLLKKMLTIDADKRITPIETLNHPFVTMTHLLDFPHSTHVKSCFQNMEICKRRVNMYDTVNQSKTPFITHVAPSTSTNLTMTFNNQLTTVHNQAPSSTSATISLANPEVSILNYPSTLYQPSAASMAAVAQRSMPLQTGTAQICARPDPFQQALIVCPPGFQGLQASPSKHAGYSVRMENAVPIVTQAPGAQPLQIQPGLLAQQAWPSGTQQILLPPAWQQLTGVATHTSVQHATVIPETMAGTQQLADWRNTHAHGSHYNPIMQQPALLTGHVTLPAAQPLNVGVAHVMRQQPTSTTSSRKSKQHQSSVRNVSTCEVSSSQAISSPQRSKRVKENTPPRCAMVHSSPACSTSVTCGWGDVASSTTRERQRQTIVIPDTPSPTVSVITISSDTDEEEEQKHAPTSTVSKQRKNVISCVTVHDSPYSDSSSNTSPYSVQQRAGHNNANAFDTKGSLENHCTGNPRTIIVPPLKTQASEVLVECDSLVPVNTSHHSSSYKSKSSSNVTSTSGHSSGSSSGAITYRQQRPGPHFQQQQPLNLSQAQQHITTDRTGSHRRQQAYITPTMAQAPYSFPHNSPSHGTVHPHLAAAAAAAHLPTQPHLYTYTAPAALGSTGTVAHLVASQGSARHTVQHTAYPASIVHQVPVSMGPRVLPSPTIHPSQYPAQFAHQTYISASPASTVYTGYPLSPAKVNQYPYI
Chain of 5'-AMP-activated protein kinase catalytic subunit alpha-1 (Q13131 whole entry, looked up): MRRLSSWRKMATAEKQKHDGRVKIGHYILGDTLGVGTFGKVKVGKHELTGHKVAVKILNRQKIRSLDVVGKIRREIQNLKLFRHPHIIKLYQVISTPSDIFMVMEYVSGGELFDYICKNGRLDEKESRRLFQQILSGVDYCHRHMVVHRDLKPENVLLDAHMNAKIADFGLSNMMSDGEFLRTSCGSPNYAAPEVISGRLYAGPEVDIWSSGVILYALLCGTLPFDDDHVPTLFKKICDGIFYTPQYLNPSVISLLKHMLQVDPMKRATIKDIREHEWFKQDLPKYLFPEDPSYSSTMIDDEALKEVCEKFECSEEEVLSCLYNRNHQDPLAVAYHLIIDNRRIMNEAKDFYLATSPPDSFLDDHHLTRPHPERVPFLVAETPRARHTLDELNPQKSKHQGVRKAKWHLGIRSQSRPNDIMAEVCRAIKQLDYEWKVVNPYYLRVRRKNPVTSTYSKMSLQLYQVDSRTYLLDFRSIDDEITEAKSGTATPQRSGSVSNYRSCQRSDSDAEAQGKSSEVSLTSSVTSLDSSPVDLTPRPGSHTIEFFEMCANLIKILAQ
Chain of Mitogen-activated protein kinase 8 (P45983 whole entry): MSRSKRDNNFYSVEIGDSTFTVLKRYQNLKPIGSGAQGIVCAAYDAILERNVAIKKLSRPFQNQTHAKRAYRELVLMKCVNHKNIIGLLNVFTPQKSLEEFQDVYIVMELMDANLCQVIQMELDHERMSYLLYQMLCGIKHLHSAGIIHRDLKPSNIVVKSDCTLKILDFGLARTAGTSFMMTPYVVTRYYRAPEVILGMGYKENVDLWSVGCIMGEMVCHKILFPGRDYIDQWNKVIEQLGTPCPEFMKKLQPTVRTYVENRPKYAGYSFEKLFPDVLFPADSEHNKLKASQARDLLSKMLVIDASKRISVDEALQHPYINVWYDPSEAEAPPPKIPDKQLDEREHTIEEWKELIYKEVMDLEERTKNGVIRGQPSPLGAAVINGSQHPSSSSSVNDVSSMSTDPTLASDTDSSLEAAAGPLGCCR
Chain of Protein kinase C eta type (Homo sapiens) (P24723 whole entry): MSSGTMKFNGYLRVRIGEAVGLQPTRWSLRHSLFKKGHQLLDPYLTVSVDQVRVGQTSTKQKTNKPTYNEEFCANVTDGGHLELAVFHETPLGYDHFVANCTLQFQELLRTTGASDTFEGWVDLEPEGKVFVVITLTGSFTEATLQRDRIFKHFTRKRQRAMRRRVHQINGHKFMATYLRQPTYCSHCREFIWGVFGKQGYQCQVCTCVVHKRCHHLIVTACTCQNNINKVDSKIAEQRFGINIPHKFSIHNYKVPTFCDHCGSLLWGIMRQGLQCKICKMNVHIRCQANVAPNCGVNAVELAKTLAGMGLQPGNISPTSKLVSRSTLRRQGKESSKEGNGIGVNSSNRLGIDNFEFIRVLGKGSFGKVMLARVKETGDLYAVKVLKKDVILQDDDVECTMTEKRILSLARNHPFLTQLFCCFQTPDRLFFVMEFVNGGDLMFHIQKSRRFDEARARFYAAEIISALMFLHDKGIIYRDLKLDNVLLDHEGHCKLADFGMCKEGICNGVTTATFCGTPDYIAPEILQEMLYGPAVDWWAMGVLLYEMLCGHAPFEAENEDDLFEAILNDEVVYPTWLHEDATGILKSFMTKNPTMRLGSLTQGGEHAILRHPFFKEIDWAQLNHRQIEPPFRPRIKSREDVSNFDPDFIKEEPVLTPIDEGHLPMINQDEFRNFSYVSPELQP
Chain of Protein kinase C beta type (P05771 2-671 limits assumed): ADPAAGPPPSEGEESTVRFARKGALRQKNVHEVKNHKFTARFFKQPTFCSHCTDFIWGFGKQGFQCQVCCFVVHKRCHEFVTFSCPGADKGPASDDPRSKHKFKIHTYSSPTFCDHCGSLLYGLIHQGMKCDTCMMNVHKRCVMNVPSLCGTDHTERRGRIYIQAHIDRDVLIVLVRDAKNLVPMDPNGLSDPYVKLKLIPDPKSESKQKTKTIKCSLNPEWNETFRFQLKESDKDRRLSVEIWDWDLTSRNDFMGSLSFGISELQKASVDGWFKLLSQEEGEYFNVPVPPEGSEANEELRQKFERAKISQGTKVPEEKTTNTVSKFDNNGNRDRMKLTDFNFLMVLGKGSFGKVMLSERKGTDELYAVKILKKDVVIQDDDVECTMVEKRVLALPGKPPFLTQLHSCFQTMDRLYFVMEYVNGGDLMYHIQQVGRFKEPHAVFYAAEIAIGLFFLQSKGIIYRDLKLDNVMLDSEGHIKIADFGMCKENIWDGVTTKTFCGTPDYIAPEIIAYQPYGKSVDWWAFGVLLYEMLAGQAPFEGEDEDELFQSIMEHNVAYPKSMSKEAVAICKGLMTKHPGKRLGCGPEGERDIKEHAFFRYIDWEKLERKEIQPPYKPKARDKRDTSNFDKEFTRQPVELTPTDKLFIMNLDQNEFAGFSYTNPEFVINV

On to `Cn1cc(-n2cnc3c(NCc4nc5cc(Cl)c(Cl)cc5[nH]4)nc(N4CCOCC4)nc32)cn1`, for which, in test [1], the % of control worked out at 0.55%. In test [2], the % of inhibition was -11.9%.
As for `CNC(=O)Nc1ccc(-c2nc(N3CC4CCC(C3)O4)c3cnn(C4CCC5(CC4)OCCO5)c3n2)cc1`, the results for the % of control in [3] and in test [4] were 100% and 91%, respectively.
As for `O=C(NOC[C@H](O)CO)c1ccc(F)c(F)c1Nc1ccc(I)cc1F`, the % of control in test [5] turned out to be 100%.
For the compound `COc1cc(N(C)c2ccnc3ccc(C(F)(F)F)cc23)cc(OC)c1OC`, the % binding in test [6] was determined as 89%.
Turning to `CN(C)CCOc1ccc(-c2nc(-c3ccncc3)c(-c3ccc4c(c3)CC/C4=N\O)[nH]2)cc1`, the % of control in [7] amounted to 100%.
Regarding `CN1Cc2nccc(-c3cn(C)nc3-c3ccc(F)cc3)c2C1=O`, the % of inhibition in test [8] and in test [9] was -2% in each case.
Regarding `CC[C@@H]1[C@H](F)C(=O)N[C@@H]1COc1nccc2cc(C(N)=O)c(OC)cc12` [ZIMLOVISERTIB], in [10], the % of inhibition amounted to 6.4%.
As a reminder, the IC50 is the concentration at which inhibition is half-maximal. With `COc1cc(Nc2nc(C)cc(-c3cnn4nc(OC)ccc34)n2)cc(C(F)(F)F)c1`, in [11], the IC50 was more than 10 µM.
On to `COCC(=O)NC/C=C/c1ccc2ncnc(Nc3ccc(Oc4ccc(C)nc4)c(C)c3)c2c1` [CP-724714], for which, in test [12], the % of control turned out to be 87%.
